Measured values: the NIST ThermoML archive (doi:10.1021/acs.jced.5b00670)

Columns and labels:
[1] = 298.15 K, 101.33 kPa, Liquid; for viscosity: Concentric cylinders viscometry; for mass density: Vibrating tube method
[2] = mn = molality of the nth substance listed, in mol/kg; conditions: 298.15 K, 101.33 kPa, Liquid, Alternating current cell with electrodes

C[N+](=O)[O-] [nitromethane]
[1]
Conditions	mass density [kg/m3]	viscosity [mPa·s]
–	1130.15	0.62

CC#N [acetonitrile]
[1]
Conditions	mass density [kg/m3]	viscosity [mPa·s]
–	776.68	0.34

CCCC[P+](CCCC)(CCCC)CCCC.CS(=O)(=O)[O-] [tetrabutylphosphonium methanesulfonate] + C[N+](=O)[O-]
[2]
Conditions	molar conductivity [S·m2/mol]
m1 = 0.000865	0.00765
m1 = 0.001335	0.00741
m1 = 0.00177	0.00723
m1 = 0.002409	0.00698
m1 = 0.002979	0.00674
m1 = 0.003623	0.00653
m1 = 0.004197	0.0063
m1 = 0.004926	0.00611
m1 = 0.005713	0.00588
m1 = 0.006624	0.00563
m1 = 0.007619	0.00541
m1 = 0.008608	0.00518

CCCC[P+](CCCC)(CCCC)CCCC.CS(=O)(=O)[O-] [tetrabutylphosphonium methanesulfonate] + CO
[2]
Conditions	molar conductivity [S·m2/mol]
m1 = 0.000912	0.00826
m1 = 0.001456	0.00793
m1 = 0.001998	0.00769
m1 = 0.002473	0.00752
m1 = 0.002947	0.00737
m1 = 0.003599	0.00721
m1 = 0.00425	0.007
m1 = 0.004926	0.00686
m1 = 0.005759	0.0066
m1 = 0.006723	0.00645
m1 = 0.007795	0.0062
m1 = 0.008664	0.00603

CCCC[P+](CCCC)(CCCC)CCCC.CS(=O)(=O)[O-] [tetrabutylphosphonium methanesulfonate] + NC=O
[2]
Conditions	molar conductivity [S·m2/mol]
m1 = 0.00084	0.00215
m1 = 0.001471	0.00201
m1 = 0.002032	0.00186
m1 = 0.002641	0.00177
m1 = 0.003191	0.00167
m1 = 0.003793	0.00159
m1 = 0.004583	0.00148
m1 = 0.005305	0.00139
m1 = 0.006146	0.0013
m1 = 0.007072	0.00119
m1 = 0.007937	0.00113
m1 = 0.008497	0.00107

NC=O [formamide]
[1]
Conditions	mass density [kg/m3]	viscosity [mPa·s]
–	1129.22	3.3

CCCC[P+](CCCC)(CCCC)CCCC.CS(=O)(=O)[O-] [tetrabutylphosphonium methanesulfonate] + CC#N
[2]
Conditions	molar conductivity [S·m2/mol]
m1 = 0.000975	0.0159
m1 = 0.001787	0.0156
m1 = 0.002451	0.0154
m1 = 0.003035	0.0153
m1 = 0.00354	0.0151
m1 = 0.00398	0.015
m1 = 0.004717	0.0149
m1 = 0.005305	0.0148
m1 = 0.006188	0.0146
m1 = 0.007186	0.0145
m1 = 0.00808	0.0143
m1 = 0.008774	0.0142

CO [methanol]
[1]
Conditions	mass density [kg/m3]	viscosity [mPa·s]
–	786.61	0.55

O [water]
Conditions	viscosity [mPa·s]
[1]	0.89

CCCC[P+](CCCC)(CCCC)CCCC.CS(=O)(=O)[O-] [tetrabutylphosphonium methanesulfonate] + O
[2]
Conditions	molar conductivity [S·m2/mol]
m1 = 0.000818	0.00412
m1 = 0.001471	0.00388
m1 = 0.002032	0.00366
m1 = 0.002641	0.00348
m1 = 0.003191	0.00334
m1 = 0.003793	0.00317
m1 = 0.004583	0.003
m1 = 0.005305	0.00288
m1 = 0.006146	0.00274
m1 = 0.007072	0.00258
m1 = 0.007937	0.00245
m1 = 0.008497	0.0024
